Experimental data taken from patent US10076576B2, “Minimally toxic prodrugs” (priority 2012, dated 2018).
Several values for one entry are separate records, joined by “and”; a condition that tells them apart may be missing. Identical values can stand only once.

Legend:
[1] = Pharmacokinetics and heart tissue quantification after single iv bolus
Protocol: (§4) Time evolution of plasma concentration (A, B) and of cardiac tissue concentration (C, D) of Doxorubicin or PhAc-ALGP-Dox and its metabolites after i.v. bolus injection to OF-1 female wild type mice at the dose of 86.2 μmol/kg. Results represent the mean concentration±SD (n=3).
(§5) Pharmacokinetic tissue distribution studies were performed using OF-1 mice. […] At different time points after drug administration (5 min, 30 min, 1 h, 4 h, 7 h, 16 h and 24 h) 3 mice per group were sacrificed by cervical dislocation and blood and heart tissue were collected. Hearts were incised and rinsed carefully in phosphate buffer saline (to eliminate blood in the cardiac cavities), dried on paper and frozen in liquid nitrogen. They were stored until analysis. Blood samples were centrifuged (10 min, 2000 g, 4° C.) to separate the plasma fraction, which was stored for analysis. The hearts were homogenized with an Ultraturrax homogenizer in 1.5 mL water. The protein concentration was measured using the microBCA protein assay (Pierce). The drug tissue quantification was made by HPLC after extraction: 150 μL of acetonitrile was added to the 50 μL samples. Samples were vortexed and centrifuged for 10 min at 13 000 rpm at room temperature. Supernatant was collected. Samples were buffered by addition of 200 mM formiate buffer pH 4.5 (1 V sample supernatant+3 V buffer) before HPLC analysis (fluo detection ex=235 nm em=560 nm).

[2] = system: orthotopic HCT116 human colon tumors; test: Orthotopic HCT116 colon carcinoma tumor model; format: in vivo, SCID mice
Protocol: (§1) FIG. 14. Evaluation of the antitumor effect of PhAc-ALGP-dox in SCID mice bearing orthotopic HCT116 human colon tumors. SCID mice were injected orthotopically (in the caecum) with human HCT116 colon tumor cells. One group was treated with saline while groups 2 and 3 received 10 intraperitoneal injections (2Q1D5) of 35 and 50 μmol/kg of PhAc-ALGP-doxorubicin. Primary tumor weights were recorded on day 34 post cell inoculation.
as §1, with “15.” for “14.”, “antimetastatic” for “antitumor”, “effect (in liver)” for “effect”, “Liver metastases” for “Primary tumor weights”
HCT116 cells were subcutaneously injected into SCID mice. Once xenografts were established, they were excised and orthotopically implanted into the ceacum of other female γ-irradiated SCID mice using microsurgical techniques. On day 12 after the cancer cells injection, the mice were randomized in four groups of 16. […] On day 34 after injection into the caecum of colonic cancer cells the animals were sacrificed, the number of metastases was counted macroscopically and the primary tumors weighted.

[3] = system: LoVo colon carcinoma human xenografts; test: Efficacy after repeated ip injections (2Q1D5), LoVo xenograft; format: in vivo, NMRI nude mice; conditions: for TGD: 190 to 1,000 mm^3
Protocol: FIG. 9. Efficacy study of PhAc-ALGP-Dox in comparison with free Doxorubicin in NMRI nude mice bearing LoVo colon carcinoma human xenografts. Drugs or controls were administered by the i.p. route twice a day for five consecutive days (arrows). The mice receiving a constant volume (10 μL/g) of either saline (-●-) or of the different dosing solutions: PhAc-ALGP-Dox 25 μmol/kg (*), 35 μmol/kg (◯) and 50 μmol/kg (+); Dox 0.5 μmol/kg (▪), 1 μmol/kg (▴) and 2 μmol/kg (×).
The efficacy of PhAc-ALGP-Dox was assessed using athymic mice (nude/nude NMRI) carrying ectopic xenograft of human LoVo colon carcinoma or of MX-1 mammary carcinoma in comparison with free Doxorubicin. Tumors were established by a subcutaneous implantation of cells (10^7 cells) in the right flank of 6 weeks old female NMRI nude mice (Harlan). Treatments were administered when the tumors reached a size of 150-200 mm^3 (measured using a caliper and calculated with the following formula: […]). Animals were randomly assigned to groups of 4 to-6 animals. […] Compounds were delivered by bolus intraperitoneal injection (ip) at 10 μl/g. During the course of the experiment, clinical signs, body weight and tumor volume were controlled twice a week. Results are presented as the evolution of mean tumor volume as a function of time. Optimal T/C (ratio of mean tumor volume of treated versus control mice) values and TGD (tumor growth delay in reaching 1000 mm^3) were used as a measure of treatment efficacy. […] A statistical analysis was performed at day 22 using the Mann Whitney t test of the Graph Pad Prism 5.0 software.

[4] = in vivo; conditions: female, OF-1, mouse, iv, 86.2 umol/kg
Protocol: as §4, §5

[5] = system: MX-1 mammary carcinoma human xenografts; test: Efficacy after repeated iv bolus, MX-1 xenograft; format: in vivo, NMRI nude mice; conditions: day 29
Protocol: FIG. 3. […] Results represent the mean body weight and tumor volume evolution±SEM (n=4).
(§2) The anti-tumor activity of doxorubicin and PhAc-ALGP-Dox was tested in models of athymic mice (nude/nude NMRI) carrying ectopic xenografts of human LS-174T colon carcinoma or MX-1 mammary carcinoma.
(§3) LS174T and MX-1 tumors were established by a subcutaneous implantation of cells (3×10^6 and 10^7 cells injected respectively) in the right flank of 6 weeks old female NMRI nude mice (Harlan). […] The day of the first injection animals were randomly assigned to groups of 4 animals. […] Compounds were delivered by bolus intravenous injection (i.v.) in the lateral tail vein at 10 μl/g. During the course of the experiment, clinical signs, body weight and tumor volume were controlled twice a week. Results are presented as the evolution of mean tumor volume as a function of time. Optimal T/C (ratio of mean tumor volume of treated versus control mice) values were used as a measure of treatment efficacy.

[6] = format: in vivo, CD1 mice
Protocol: FIG. 12. Evaluation of PhAc-ALGP-Dox leucopenic effect in comparison with Doxorubicin. CD1 mice received twice daily intraperitoneal injections of PhAc-ALGP-Dox 35 μmol/kg (●) or of Doxorubicin 3.5 μmol/kg (▪) for five consecutive days. The mice body weight evolution was recorded (A). Blood was collected from the tail vein in heparinised Microvettes tubes (Starsted) at day 4, 11 and 15 after treatment initiation. Peripheral white blood cells (WBC) were counted using the SCILvet abc hematologic analyzer (B). The increase or decrease in WBC is expressed as a percentage of WBC on day 0 (100%) for each mouse. The curves show evolution of the mean percentages.
The leucopenic effects of PhAc-ALGP-Dox (35 μmol/kg ip) and of Doxorubicin (3.5 μmol/kg ip) were compared in two independent experiments. CD1 mice received two daily intraperitoneal injections of drugs for five consecutive days (total 10 injections/mouse; 2×5 animals per group). The mice body weight evolution was recorded. Blood was collected from the tail vein in EDTA-coated Microvettes tubes (Starsted) at day 4, 11 and 15 after treatment initiation. White blood cells (WBC) were counted using the SCILvet abc hematologic analyzer. The increase or decrease in WBC was expressed as a percentage of WBC on day 0 (100%) for each mouse.

[7] = system: LS174T colon carcinoma human xenografts; test: Efficacy after repeated iv bolus, LS174T xenograft; conditions: for TGI [% (day)]: day 28
Protocol: FIG. 2. Efficacy study of PhAc-ALGP-Dox in comparison with free Doxorubicin in NMRI nude mice bearing LS174T colon carcinoma human xenografts. Drugs or controls were administered by the i.v. route on day 0 and day 7. The mice receiving a constant volume (10 μL/g) of either saline (-●-;-◯-) or of the different dosing solutions: PhAc-ALGP-Dox 140 μmolKg (-▴-) and 160 μmol/kg (-×-); Dox 15 μmol/kg (-♦-). Results represent the mean body weight and tumor volume evolution±SEM (n=4).
as §2, §3

SMILES: COc1cccc2c1C(=O)c1c(O)c3c(c(O)c1C2=O)C[C@@](O)(C(=O)CO)C[C@@H]3O[C@H]1C[C@H](N)[C@H](O)[C@H](C)O1 [Doxorubicin, reference compound]
- drug plasma concentration eliminated in the first five minutes ([1]; i.v. bolus 86.2 μmol/kg): About 90%
- mortality ([2]; 2 μmol/kg ip 2Q1D5, SCID mice): all animals died within 10 days
- TGD ([3]; 0.5 μmol/kg ip 2Q1D5): 1 days
- TGI [% (day)] ([3]; 1 μmol/kg ip 2Q1D5): no antitumor activity and no
- TGD ([3]; 1 μmol/kg ip 2Q1D5): 0 days
- TGD ([3]; 2 μmol/kg ip 2Q1D5): 6 days
- TGI [% (day)] ([3]; 2 μmol/kg ip 2Q1D5, day 22, listed as Dox): 45%
- AUC [4]: 63 µM·h
- TGI [% (day)] ([5]; 8 μmol/kg iv day 0, 3, 6, 9): 65 (29) %
- mortality ([6]; 3.5 μmol/kg ip 2Q1D5, 2×5 animals): one mouse was found dead at day 11 as well as 3 mice at day 15
- TGI [% (day)] ([7]; 15 μmol/kg iv day 0 and 7): 55 (28) %

SMILES: COc1cccc2c1C(=O)c1c(O)c3c(c(O)c1C2=O)CC(O)(C(=O)CO)CC3OC1CC(NC(=O)C2CCCN2C(=O)CNC(=O)C(CC(C)C)NC(=O)C(C)NC(=O)CP(=O)(O)O)C(O)C(C)O1 (centres unmarked) [PhAc-ALGP-Dox, PhAc-ALGP-doxorubicin]
- Dox heart AUC versus Dox administration (times lower) ([1]; equimolar 86.2 μmol/kg iv): 25 times
- plasma AUC of Doxorubicin after Doxorubicin versus after PhAc-ALGP-Dox (times higher) ([1]; equimolar 86.2 μmol/kg iv): 63 times
- drug plasma concentration eliminated in the first five minutes ([1]; i.v. bolus 86.2 μmol/kg): About 90%
- fraction hydrolysed into LGP-Dox, GP-Dox and Dox in plasma ([1]; i.v. bolus 86.2 μmol/kg): Less than 1%
- time after which metabolites were no longer detected in plasma ([1]; i.v. bolus 86.2 μmol/kg): 1 h
- Heart AUC of PhAc-ALGP-Dox ([1]; one i.v. bolus 86.2 μmol/kg): 23 pmol · h/mg protein
- number of hepatic metastases ([2]; 30 μmol/kg, day 34): 24
- primary tumor weight ([2]; 30 μmol/kg, day 34): 0.69 g
- mice surviving 34 days ([2]; 35 μmol/kg ip 2Q1D5, groups of 16): 12 mice
- mice surviving 34 days ([2]; 50 μmol/kg ip 2Q1D5, groups of 16): 9 mice
- mean number of hepatic metastases ([2]; 50 μmol/kg, day 34): 1.78
- primary tumor weight ([2]; 50 μmol/kg, day 34): 0.44 g
- TGD ([3]; 25 μmol/kg ip 2Q1D5): 5 days
- TGI [% (day)] ([3]; 25 μmol/kg ip 2Q1D5, day 22): 32 (22) %
- TGD ([3]; 35 μmol/kg ip 2Q1D5): 13 days
- TGI [% (day)] ([3]; 35 μmol/kg ip 2Q1D5, day 22): 60 (22) %
- TGD ([3]; 50 μmol/kg ip 2Q1D5): 17 days
- TGI [% (day)] ([3]; 50 μmol/kg ip 2Q1D5, day 22): 65% and 65 (22) %
- AUC [4]: 97 µM·h
- TGI [% (day)] ([5]; 100 μmol/kg iv day 0, 3, 6, 9): 60 (29) %
- leucopenic effect and body weight loss (in words) ([6]; 35 μmol/kg ip 2Q1D5): No leucopenic effect and body weight loss
- body weight loss (maximum) ([7]; 140 μmol/kg and 160 μmol/kg iv, twice): ≤ 10%
- TGI [% (day)] ([7]; 140 μmol/kg iv day 0 and 7): 79 (28) %
- TGI [% (day)] ([7]; 160 μmol/kg iv day 0 and 7): 81 (28) %
